This experiment has as its system decay organisms. Nature of the experiment: Soil contact veneer exposure test: dip-treated Scots pine sapwood veneers in damp compost, pulled by hand weekly until failure. The note with it: for Half life for fungicide at 2% active ingredient (ai): Example 3; for Half life for fungicide at 2% active ingredient (ai) / Half life for fungicide at 2% ai: 2% single biocide; for average time for failure to occur, Quat Only: 0.36% active quaternary ammonium compound in deionised water. From the text:
The present invention also provides a simple exposure test for evaluating the wood preserving abilities of candidate ingredients or compositions. This exposure test is based on the premise that small dimension timber test specimens tend to fail more quickly than larger ones in soil contact situations.
It is preferable that the thickness of the veneers be greater than 0.1 mm, as veneers of lesser thickness can often be pulled apart by hand without undergoing exposure to decay organisms. Veneers which are thicker than 0.4 may take an excessive amount of time to fail the exposure test. In one embodiment, the thickness of the veneers is about 0.2 mm and the wood is the sapwood of the Scots pine (Pinus sylvestris). Other woods and thicknesses can be used. […] An example of convenient width and length dimensions are 15×50 mm. However, width and length are not critical provided they are kept consistent within a test, although very large or small length or width dimensions may be difficult to handle.
Accordingly, the test of the present invention comprises testing the integrity of a veneer after exposure to a decay-inducing environment. In one embodiment, this environment is damp compost in which decay organisms are present and water is present at just above the water holding capacity of the compost. If desired, other media can be used, and the test can be conducted at water contents which are below, at, or above the water-holding capacity of the media.
In general, the integrity of the veneer is inversely related to the length of exposure to the decay promoting environment. The integrity of the veneer can be tested by applying a force to the veneer and noting whether or not the veneer breaks. Thus, if wood preservative agents are applied to the veneers, these veneers would be expected to withstand longer exposure to the environment without breaking compared to control veneers without breaking.
The force applied to the veneers is preferably a force which pulls the two ends in opposite directions. The force can be applied by the use of an instrument or manually. If there is significant decay the veneer will break, generally near the junction between the portion submerged in the decay accelerating medium and the portion exposed to air. If the force is applied manually, it is preferable that the same individual conduct the test at the various exposure time points.
The veneers were cut such that both late wood and early wood were present in each veneer. The following biocides were tested: dichlorophen, fenarimol, imazalil sulfate, and PHMB.
Test solutions were prepared and sets of veneers were dip treated such that there were 6 replicate veneers for each treatment under investigation. Additionally six veneers were dip treated in deionised water to act as water controls. […] Plastic containers (approximately 350×220 mm by at least 60 mm high) were part filled with John Innes Number 2 potting compost at a little above its water holding capacity. The veneers for a particular test were placed in six rows within a container such that approximately half the veneer was below the compost and half above. The veneers were placed in the compost such than those given a particular treatment were distributed throughout the container and were not grouped together. The containers, compost and veneers were weighed then incubated at about 30° C. and near 100% relative humidity in an incubator. Each week during the test the assembly was reweighed and deionised water added to bring it back to its original mass. After 3 weeks each veneer was examined in turn. It was held between the fingers at each end and pulled to see if it could be broken. If it could be pulled apart a failure was recorded. If the veneer was sound, this was recorded and the veneer was returned to its original position. After a further one week incubation all sound veneers were assessed again as described above, with the same person conducting the assessments.

[1] abbreviates: Example 7, solutions in acetone, single biocide at 0.8%.
Where [2] appears, read: Example 7, solutions in acetone, single biocide at 1.6%.
Where [3] appears, read: Example 6, solutions in IMS (alcohol), single biocide at 0.8%.
The mark [4] stands for this setting: Example 6, solutions in IMS (alcohol), single biocide at 1.6%.
Where [5] appears, read: Example 5, solutions in IMS (alcohol).
Where [6] appears, read: Example 8, solutions in IMS (alcohol), single biocide at 0.8%.
The mark [7] stands for this setting: Example 8, solutions in IMS (alcohol), single biocide at 1.6%.
Where [8] appears, read: Example 4, solutions in acetone.
The mark [9] stands for this setting: Example 1, single biocide at 0.8% in treatment solution, 6 replicate veneers.

Values joined by “and” are separate entries in the source; they are usually repeats but may differ in a detail not shown here. Equal values may be shown once.

Consider `CC(Cc1ccc(C(C)(C)C)cc1)CN1C[C@@H](C)O[C@@H](C)C1` (stereo partly drawn) [Fenpropimorph, cis-4-[3-[4-(1,1-dimethylethyl)phenyl]-2-methylpropyl]-=2,6-dimethylmorpholine], for which, for the setting “solutions in IMS (alcohol)”, the “Half life for fungicide at 2% active ingredient (ai)” value came out at 6.17 weeks. Also, the Calculated half life reads like this: under setting [1], 3.67 weeks; under setting [2], 4.33 weeks.
As for “N,N-didecyl-N-methyl-poly(oxyethyl) ammonium propionate [Bardap 26]”, where the note is “Example 2”, the “average time for failure to occur, Quat Only” value amounted to 5.0 weeks. For the same compound, the Calculated half life is, setting by setting: under setting [3], 5.17 weeks; under setting [4], 6.00 weeks.
`CCCCCCCCCC[N+](C)(C)CCCCCCCCCC.[Cl-]` [DDAC, didecyl dimethyl ammonium chloride]: the “average time for failure to occur, Quat Only” value (Example 2) came to 4.2 weeks. The “Half life for fungicide at 2% ai” value under setting [5] is 5.50 weeks. Besides, the Calculated half life runs as follows: under setting [3], 5.17 weeks; under setting [4], 6.67 weeks.
On to “alkyl dimethyl benzyl ammonium chloride [BAC]”, for which the “Half life for fungicide at 2% ai” value under setting [5] is 5.00 weeks. Also, the Calculated half life was 5.00 weeks under setting [6] and 5.00 weeks under setting [7].
For the compound `CCCCCCCCn1sc(Cl)c(Cl)c1=O` [RH 287, 4,5-dichloro-2-n-octyl-3(2H)-isothiazolone], the Calculated half life under setting [1] is given as 10.00 weeks and the Calculated half life under setting [2] is 16.83 weeks.
On to `COC(=O)N(OC)c1ccccc1COc1ccn(-c2ccc(Cl)cc2)n1` [Pyraclostrobin, methyl N-{2-[1-(4-chlorophenyl)-1H-pyrazol-3-yloxymethyl]phenyl}(N-methoxy)carbamate], for which the “Half life for fungicide at 2% ai” value under setting [5] was determined as 5.67 weeks.
Take `Oc1ccc(Cl)cc1Cc1cc(Cl)ccc1O` [Dichlorophen, 2,2′-methylenebis [4-chlorophenol]]: the “average time for failure to occur” value (Example 1, 0.6% dichlorophen alone) was 9.5 weeks and the “average time for failure to occur” value (Example 2, 0.60% dichlorophen, no quat) stood at 5.7 weeks. For the setting “solutions in IMS (alcohol)”, the “Half life for fungicide at 2% active ingredient (ai)” value came to 15.67 weeks. Besides, the “Half life for fungicide at 2% ai” value is listed as 18.17 weeks under setting [8] and 17.00 weeks under setting [5]. Moreover, the Calculated half life under setting [3] is reported as 11.33 weeks; the Calculated half life under setting [4] is 14.50 weeks; the Calculated half life under setting [1] is given as 8.67 weeks; the Calculated half life under setting [2] was 10.83 weeks; the Calculated half life under setting [6] is 7.83 weeks; the Calculated half life under setting [7] is on record as 11.67 weeks.
Consider `CC(C1CC1)C(O)(Cn1cncn1)c1ccc(Cl)cc1` (stereo not drawn) [Cyproconazole, α-(4-chlorophenyl)-α-(1-cyclopropylethyl)-=1H-1,2,4-triazol-1-ethanol], for which the “Half life for fungicide at 2% active ingredient (ai)” value (solutions in IMS (alcohol)) amounted to 6.67 weeks. Also, the Calculated half life runs as follows: under setting [1], 4.33 weeks; under setting [2], 4.50 weeks.
For the compound “Poly(hexamethylenebiguanide) hydrochloride [PHMB]”, the “average time for failure to occur” value under setting [9] is on record as 4.8 weeks. The Calculated half life is, setting by setting: under setting [6], 5.00 weeks; under setting [7], 5.50 weeks.
`OC(c1ccc(Cl)cc1)(c1cncnc1)c1ccccc1Cl` (racemic) [Fenarimol, (±)-2,4′-dichloro-α-(pyrimidin-5-yl) benzhydryl alcohol]: the “average time for failure to occur” value under setting [9] is ~7.2 weeks and 7.2 weeks. Besides, the “Half life for fungicide at 2% active ingredient (ai)” value (solutions in IMS (alcohol)) is reported as 7.33 weeks.
Consider `O=C(Nc1ccccc1)c1ccccc1O` [Salicylanilide, 2-hydroxy-N-phenylbenzamide], for which the “Half life for fungicide at 2% active ingredient (ai)” value (solutions in IMS (alcohol)) is given as 14.00 weeks. In addition, the Calculated half life is reported as 4.83 weeks under setting [6] and 5.83 weeks under setting [7].
On to `N#Cc1c(Cl)c(Cl)c(Cl)c(C#N)c1Cl` [Chlorothalonil, 2,4,5,6-tetrachloro-1,3-benzenedicarbonitrile], for which the Calculated half life is listed as 9.33 weeks under setting [1] and 12.33 weeks under setting [2].
Turning to `CCCCCCCCCCCCN(CCCN)CCCN` [Triameen, N,N-bis(3-aminopropyl) dodecylamine], the “Half life for fungicide at 2% ai” value under setting [5] stood at 5.50 weeks.
On to `OB(O)O` [Boric acid], for which the Calculated half life by setting is: under setting [6], 4.17 weeks; under setting [7], 4.50 weeks.
As to “1H-imidazole, 1-(2-(2,4-dichlorphenyl)-2-(2-propenyloxy)ethyl)-,sulfate [Imazalil Sulphate]”, the “average time for failure to occur” value (Example 1, single biocide at 0.4% in treatment solution) was found to be 5.2 weeks. Further, the “Half life for fungicide at 2% ai” value under setting [5] amounted to 7.83 weeks. The Calculated half life is recorded as 7.00 weeks under setting [3] and 8.00 weeks under setting [4].
`CCCC1COC(Cn2cncn2)(c2ccc(Cl)cc2Cl)O1` (stereo not drawn) [Propiconazole, 1-[[2-(2,4-dichlorophenyl)-4-propyl-1,3-dioxolan-2-yl]=methyl]-1H-1,2,4-triazole]: the “Half life for fungicide at 2% ai” value under setting [8] is 6.33 weeks. Also, the Calculated half life under setting [1] is given as 5.67 weeks and the Calculated half life under setting [2] was 6.00 weeks.
Turning to `CCCCCCCCCCCCCN1CC(C)OC(C)C1` (stereo not drawn) [Tridemorph, 4-alkyl-2,6-dimethylmorpholine], the “Half life for fungicide at 2% active ingredient (ai)” value (solutions in IMS (alcohol)) was found to be 5.83 weeks.

Source of the values: patent US20060217447A1, “Wood preservative formulations comprising dichlorophen” (priority 2005, published 2006).
